Values of other authors as cited in patent US10576045B2 (priority 2012, dated 2020).

Assays:
[1] = obese patients with BED; 8 mg/day of reboxetine for 12 days
[2] = reboxetine 4 mg/day coadministered with olanzapine
anticholinergic binding = conditions: different animal models
[3] = 60 mg/day

| SMILES | binge eating behavior [1] | weight-gain associated with olanzapine administration [2] | serotonin reuptake inhibitory activity (serotonin reuptake) | dopamine reuptake inhibitory activity (dopamine reuptake) | anticholinergic binding activity (anticholinergic binding) | monoamine oxidase (MAO) inhibitory activity (monoamine oxidase (MAO)) | difference between treatment and placebo groups ([3]; end of the study, week 52) | weight loss compared to placebo ([3]; following 28 weeks of treatment) |
| --- | --- | --- | --- | --- | --- | --- | --- | --- |
| CCOc1ccccc1O[C@H](c1ccccc1)[C@H]1CNCCO1 (relative stereo) [reboxetine, (R*,R*)-2-[(2-ethoxyphenoxy)-phenyl-methyl]morpholine] | reduced binge eating behavior | reduced the weight-gain | only marginal | no | no anticholinergic binding activity | substantially devoid | – | – |
| CNCCC(Oc1ccc(C(F)(F)F)cc1)c1ccccc1 (racemic) [fluoxetine, (+−)-N-methyl-3-(p-trifluoromethylphenoxy)-3-phenylpropyl-amine] | – | – | – | – | – | – | no difference | statistically significant weight loss |
